For 101 compounds, GHS category results are on record in the CATMoS acute toxicity set (Mansouri et al. 2021).

The series can be described thus: GHS categories as the set defines them, by LD50: 1 up to 5, 2 up to 50, 3 up to 300, 4 up to 2000, 5 above 2000 mg/kg. The following applies: rat; in vivo; po.
The compound `Cc1cc(O)c(C)c2c1OC(C)(CCCC(C)CCCC(C)CCCC(C)C)CC2` (racemic) gave a GHS category of 5. `CCCCCCCSCCCCN1CCCCCC1=O`: the GHS category came to 5. In turn, `C[C@H]1C[C@@H]2[C@H]([C@@H](O)C[C@@]3(C)[C@H]2CC[C@]3(O)C(=O)COC(=O)CCC(=O)O)[C@@]2(C)C=CC(=O)C=C12` gave a GHS category of 5. Then `Cc1c(C)c2c(c(C)c1OC(=O)c1cccnc1)CC[C@@](C)(CCC[C@H](C)CCC[C@H](C)CCCC(C)C)O2` (racemic), with 5; and `CCCC(=O)c1ccc2c(c1)OCC(=O)N2C`, with 5; and `CCCCCCCCCCCCCC(=O)OCCCC`, with 5. For `COC(=O)c1ccc(C(=O)OC)c([N+](=O)[O-])c1`, the GHS category was found to be 5. On to `OC[C@H]1O[C@@H](n2cnc3c(O)ncnc32)[C@H](O)[C@@H]1O`, for which the GHS category came out at 5. Consider `CN1CC(CO)CC2c3cccc4c3c(cn4C(C)(C)C)CC21` (stereo unspecified), for which the GHS category is 4.

In turn, `COC(=O)CC(N)=S` registered a GHS category of 4. Compound `CCCC/C=C/CC/C=C\CCCCCCOC(C)=O` gave a GHS category of 5.

Compound `C[C@H]1c2cccc(O)c2C(=O)C2=C(O)[C@]3(O)C(=O)C(C(N)=O)=C(O)[C@@H](N(C)C)[C@@H]3[C@@H](O)[C@@H]21` displayed a GHS category of 5. In the case of `CC(C)NC(=O)N1CCc2nc(N=C(N)N)sc2C1`, the GHS category was 4.

Consider `C=C(C)C(=O)OCCNC(C)(C)C`, for which the GHS category was 4. For `COc1ccc(Br)cc1`, the GHS category came out at 4. `CCn1cc[n+](C)c1` came in with a GHS category of 5.

In the case of `Cc1nnc(SCC2=C(C(=O)O)N3C(=O)[C@@H](NC(=O)Cn4cnnn4)[C@H]3SC2)s1`, the GHS category was determined as 5. In the case of `CCOC(=O)C1=C(C)NC(CCl)=C(C(=O)OCC)C1c1cccc([N+](=O)[O-])c1` (stereo unspecified), the GHS category was 4. In the case of `C=COC(=O)CCCCCCCCCCC`, the GHS category is given as 5.

Consider `Cc1cc(C(=O)Nc2ccccc2C)n[nH]1`, for which the GHS category is given as 5. As for `CCCCCCCCCCCc1ccccc1`, the GHS category is 5. Take `CCCCCCCOC(C)=O`: the GHS category came to 5. As for `CC(=O)c1ccc2cc(CC(=O)O)ccc2c1`, the GHS category was found to be 5. Then `CCCCCCCCCCCC(=O)N(CC)CC`, with 5. The compound `CC1N=C(c2ccccc2Cl)c2c(ccc(NC(=O)NCCO)c2Br)N(C)C1=O` (stereo unspecified) registered a GHS category of 5. As for `C[C@]12Cc3nonc3C[C@@H]1CC[C@@H]1[C@@H]2CC[C@@]2(C)[C@H]1CC[C@]2(C)O`, the GHS category is given as 5.

In turn, `C=C1CC[C@H]2O[C@]2(C)CC[C@@H]2[C@@H]1CC2(C)C` showed a GHS category of 5. Then `O=C(OCCOCCO)c1cc(O)ccc1Nc1cccc(C(F)(F)F)c1`, with 4; and `CN1C(CCl)Nc2cc(Cl)c(S(N)(=O)=O)cc2S1(=O)=O` (stereo unspecified), with 5. In turn, `CCCNC(=O)c1cnc2cc(C)ccn2c1=O` yielded a GHS category of 3. As for `Cc1ccc(OP(=O)(Oc2ccc(C)cc2C)Oc2ccc(C)cc2C)c(C)c1`, the GHS category worked out at 5. In turn, `CCC(COC(=O)c1cc(OC)c(OC)c(OC)c1)(c1ccccc1)N(C)C` (stereo unspecified) showed a GHS category of 5. For the compound `CC1=C(CCC(=O)O)c2cc3[nH]c(cc4nc(cc5[nH]c(cc1n2)c(C)c5C(C)O)C(C)=C4C(C)O)c(C)c3CCC(=O)O` (stereo unspecified), the GHS category was 5. `COc1cc2nc(N3CCN(C(=O)C4COc5ccccc5O4)CC3)nc(N)c2cc1OC` (stereo unspecified) registered a GHS category of 5. For `CS/C(=N\O)C(=O)N(C)C`, the GHS category worked out at 5. Then `CC1CCC(C(C)C)C(OC(=O)C2OC(O)CS2)C1` (stereo unspecified), with 5; and `CN1CN(C)CN(C)C1`, with 4; and `O=C(O)[C@H](O)[C@H](O)[C@@H](O)[C@H](O)[C@H](O)CO`, with 5. `CC1CC(C)(C)OC(Cn2cncn2)(c2cc3ccccc3o2)O1` (stereo unspecified) gave a GHS category of 4.

Turning to `O=C1NCCCN1CN1CCOCC1`, the GHS category came out at 5. Take `CC(C(=O)C(N)=O)c1ccc(N2Cc3ccccc3C2=O)cc1` (stereo unspecified): the GHS category amounted to 5. For `CN(C)Cn1c(=O)oc2ccc(Cl)cc21`, the GHS category is listed as 4.

Consider `C[C@@H](O)[C@H]1C(=O)N2C(C(=O)O)=C(SCCNC=N)C[C@H]12`, for which the GHS category came out at 5. Consider `COc1cc(O)c2c(=O)oc(CO)cc2c1`, for which the GHS category came to 4. `CCN(C(=O)CCCCSc1nnnn1C)C1CCCCC1` came in with a GHS category of 4.

Regarding `O=C(O)Cc1nc(-c2ccc(F)cc2)oc1-c1ccsc1`, the GHS category was found to be 5. Compound `COC(=O)c1ccccc1S(=O)(=O)NC(=O)Nc1nc(C)cc(C)n1` yielded a GHS category of 5. Turning to `CCN(CC)CCOC(=O)c1ccc(NC(=O)C(C)(C)Oc2ccccc2Cl)cc1`, the GHS category is reported as 5. `COC(=O)c1c(C(F)F)nc(C(F)(F)F)c(C2=NCCS2)c1CC(C)C` gave a GHS category of 5.

In turn, `CCCOC(=O)c1ccc(O)cc1` displayed a GHS category of 5. `CC(=O)Nc1ccc(S(=O)(=O)Cl)cc1` gave a GHS category of 5. The compound `CC1CC(OC(=O)C(C)(C)Oc2ccc(Cl)cc2)CC(C)(C)C1` (stereo unspecified) showed a GHS category of 5. Compound `CC(C)(C)c1ccc(C(=O)CCCN2CCC(OC(c3ccccc3)c3ccccc3)CC2)cc1` displayed a GHS category of 5.

`N#CCN(CC#N)CCN(CC#N)CC#N` had a GHS category of 5. Then `CC1C2Cc3ccc(O)cc3C1(C)CCN2CCCC(=O)c1ccc(F)cc1` (stereo unspecified), with 4.

`C=CC=CC=CC=CC=CC=CC=CC` yielded a GHS category of 5.

`COc1ccc2c(c1)CCN(c1ccccc1)C2c1ccccc1` (stereo unspecified) yielded a GHS category of 4. Regarding `O=[N+]([O-])c1ccc(C=NOCc2cccc([N+](=O)[O-])c2)cc1`, the GHS category amounted to 4.

Take `CNC(=O)Oc1cccc2c1OC(C)(C(C)(C)C)O2` (stereo unspecified): the GHS category came out at 4. `O=C(c1ccccc1)c1ccc2[nH]c(=O)oc2c1`: the GHS category came to 5. `CCOC(/C=C(\C)CCC=C(C)C)OCC` had a GHS category of 5.

Compound `CCC/C=C/COC(=O)CC` returned a GHS category of 5. Then `CCC1(c2ccccc2O)NC(=O)NC1=O` (stereo unspecified), with 5. Then `Nc1ccc(C2(c3ccc(N)c(Cl)c3)c3ccccc3-c3ccccc32)cc1Cl`, with 5; and `CC(C)CCCC(C)CCCC(C)CCCCC(C)CCCC(C)CCCC(C)C` (stereo unspecified), with 4; and `O=C1CCc2cc(OCCCCc3nnnn3C3CCCCC3)ccc2N1`, with 5. `OC[C@H]1O[C@@H](n2cnc3c(NC[C@H](O)COc4cccc5ccccc45)ncnc32)[C@H](O)[C@@H]1O` yielded a GHS category of 4. `Cc1cc(C)nc(NC(=O)NS(=O)(=O)c2ccccc2C(=O)OC2COC2)n1` gave a GHS category of 5. Compound `CCCCCCCCCCCCCCCCOC(=O)C(CC)CCCC` (stereo unspecified) displayed a GHS category of 5.

`CNc1cccc(NC(=O)C(=O)O)c1C#N` returned a GHS category of 5.

For `Clc1cc(Cl)c2oc(C3(Cn4ccnc4)OCCCO3)cc2c1`, the GHS category amounted to 4. In the case of `C=CC(=O)OCC[N+](C)(C)Cc1ccccc1`, the GHS category amounted to 5. For the compound `Cc1cc(NC(=O)NC(=O)c2c(F)cccc2F)nc(C)c1-c1ccc(Cl)cc1`, the GHS category amounted to 5. The compound `C=CCCCCC=C` registered a GHS category of 5. In the case of `O=C(O)CC(=O)C(=O)O`, the GHS category was determined as 5. `C=CCNC(=O)Oc1cccc2c1OC(C)(C)O2` showed a GHS category of 4.

In turn, `O=C(O)CCCCCNc1nc(NCCCCCC(=O)O)nc(NCCCCCC(=O)O)n1` returned a GHS category of 5. Take `CCCCC1(CC)COC(Cn2cncn2)(c2cc3ccccc3o2)OC1` (stereo unspecified): the GHS category worked out at 4. The compound `Cc1cccc(OC(=O)c2ccccc2OC(N)=O)c1` gave a GHS category of 5.

The compound `C/C=C/C/C=C\CCCCCCCCOC(C)=O` came in with a GHS category of 4. As for `C[N@+]1(CCNP(=S)(NCC[N@@+]2(C)Cc3c(ccc4c3OCO4)[C@@H]3[C@H]2c2cc4c(cc2C[C@@H]3O)OCO4)NCC[N@@+]2(C)Cc3c(ccc4c3OCO4)[C@@H]3[C@H]2c2cc4c(cc2C[C@@H]3O)OCO4)Cc2c(ccc3c2OCO3)[C@@H]2[C@H]1c1cc3c(cc1C[C@@H]2O)OCO3`, the GHS category came to 4. Regarding `C=C(C)C(C)(C)Cc1ccc(Nc2ccc(CC(C)(C)C(=C)C)cc2)cc1`, the GHS category came to 5. The compound `CC1Oc2cc(C(=O)c3cccs3)ccc2N(C)C1=O` (stereo unspecified) displayed a GHS category of 5. As to `CC(=O)c1ccc(Oc2ccc(Cl)cc2)cc1Cl`, the GHS category was found to be 5.

Take `CCCCCCOC(=O)C(C)(C)C`: the GHS category is 5. `O=C1CN2CCOC2(c2ccccc2F)c2cc(Cl)ccc2N1CCO` (stereo unspecified): the GHS category is 5.

As to `CCCCCCC(O)CO` (stereo unspecified), the GHS category amounted to 5. `O=C(CCCN1CCC2(CC1)C(=O)NCN2c1ccccc1)c1ccc(F)cc1`: the GHS category amounted to 4. `COC(=O)CCN[N+](C)(C)C` had a GHS category of 3. Compound `Clc1cc(Cl)c(OCC#CI)cc1Cl` came in with a GHS category of 5.

Consider `COc1nc(OC)nc(C(=O)c2cccc(F)c2N(C)S(=O)(=O)C(F)(F)F)n1`, for which the GHS category is given as 5. Consider `CCCNC(=O)c1cnc2ccc(C)cn2c1=O`, for which the GHS category stood at 3.

Regarding `CCCOC(C)OCCC`, the GHS category came to 5. Compound `CCCc1nc2ccnn2c(Cl)c1Cc1ccc(-c2ccccc2-c2nn[nH]n2)cc1` displayed a GHS category of 4. In the case of `CCOC(=O)Oc1c(OC)cc(C(=O)O[C@@H]2C[C@@H]3CN4CCc5c([nH]c6cc(OC)ccc56)[C@H]4C[C@@H]3[C@H](C(=O)OC)[C@H]2OC)cc1OC`, the GHS category came to 5. The compound `COC(=O)c1ccc(C(=O)OC)c(N)c1` came in with a GHS category of 5. On to `CC(C)(C)c1ccc2oc(-c3ccc(C=Cc4ccc(-c5ccccc5)cc4)cc3)nc2c1`, for which the GHS category is reported as 5. `C#CCN(C(C)=O)C(=O)Oc1cccc2c1OC(C)(C)O2`: the GHS category is recorded as 4.

With `Cc1ccn2nc(S(=O)(=O)Nc3c(F)cccc3F)nc2n1`, the GHS category came to 5. `CC(SCC(=O)O)c1ccc2c(c1)Cc1ccccc1-2` (stereo unspecified) registered a GHS category of 4. Compound `O=[N+]([O-])c1ccc(Nc2ccccc2)cc1` registered a GHS category of 5.
